Measurements as given in US10265329B2, “Altering steroid metabolism for treatment of steroid-dependent disease” (THE CLEVELAND CLINIC FOUNDATION, priority 2015, dated 2019).

Assays:
3βHSD = biological target: T1, 3βHSD (Homo sapiens, UniProt P14060); experiment: Conversion of [3H]-DHEA by 3βHSD to AD in prostate cancer cells (HPLC/TLC); format: cell-based; settings: for 3βHSD inhibition activity relative to D4A: LNCaP, [3H]-DHEA to AD, 48 hours
T1 construct: endogenous in cells; host or cells: LNCaP, VCaP
T1 sequence (P14060 2-373 limits assumed): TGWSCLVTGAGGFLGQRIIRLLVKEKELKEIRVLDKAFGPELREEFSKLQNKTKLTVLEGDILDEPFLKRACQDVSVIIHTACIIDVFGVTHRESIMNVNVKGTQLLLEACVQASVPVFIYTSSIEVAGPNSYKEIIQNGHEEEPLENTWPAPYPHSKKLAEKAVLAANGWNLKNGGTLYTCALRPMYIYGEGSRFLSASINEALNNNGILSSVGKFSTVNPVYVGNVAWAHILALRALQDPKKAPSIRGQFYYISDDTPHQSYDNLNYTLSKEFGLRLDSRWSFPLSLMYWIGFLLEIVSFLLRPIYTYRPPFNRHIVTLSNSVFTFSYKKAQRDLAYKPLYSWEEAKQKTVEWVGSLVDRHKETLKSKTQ
Procedure: Cell Line Metabolism: Cells were seeded and incubated in 12-well plates with 0.2 million cells/well for ˜24 h and then incubated with a mixture of radioactive ([^3H]-labeled) and non-radioactive androgens (final concentration, 100 nM; ˜1,000,000 cpm/well; PerkinElmer, Waltham, Mass.) at 37° C. Aliquots of medium were collected at the indicated times. Collected medium was treated with 1,000 units of β-glucuronidase (Helix pomatia; Sigma-Aldrich) at 65° C. for 2 h, extracted with 860 μL ethyl acetate:isooctane (1:1), and concentrated under nitrogen gas. Xenograft Metabolism: 10^7 LNCaP or VCaP cells were injected subcutaneously with Matrigel into surgically orchiectomized NSG mice that were implanted with 5 mg 90-day sustained-release DHEA pellets (Innovative Research of American, Sarasota, Fla.). Xenografts were harvested when they reached 1000 mm^3, minced, and cultured in DMEM with 10% FBS at 37° C. with mixture of radioactive ([^3H]-labeled) and non-radioactive androgens, or Abi, when they reached 1000 mm^3. Each xenograft was analyzed in triplicate in at least three independent experiments. Aliquots of medium were collected at the indicated times. Collected medium was treated with 1,000 units of β-glucuronidase at 65° C. for 2 h, extracted with 860 μL ethyl acetate:isooctane (1:1), and concentrated under nitrogen gas.
Dried samples were reconstituted in 50% methanol and injected into the HPLC. Steroids and drug metabolites were separated on Kinetex 100×2.1 mm, 2.6 μm particle size C18 reverse-phase column (Phenomenex, Torrance, Calif.) using a methanol/water gradient at 30° C. […] Alternatively, dried samples were applied to plastic-backed silica gel plates and separated by thin-layer chromatography (TLC) using a mobile phase of 3:1 chloroform:ethyl acetate, followed by exposure of the plates to a phosphorimager screen and quantitated with a Storm model 860 phosphorimager (Applied Biosystems, Foster City, Calif.). […] Results are shown as mean±SD. […]

[1] = Phase II clinical trial NCT01393730: serum Abi metabolites before and after dutasteride; format: in vivo, human; settings: for mean serum concentration, cycle 3: Abi acetate 1000 mg daily plus prednisone alone; for mean serum concentration, cycle 3 / mean serum concentration, cycle 4: 16 patients; for mean serum concentration, cycle 4: after addition of dutasteride 3.5 mg once daily
Procedure: Twelve patients with CRPC undergoing treatment with Abi acetate at Cleveland Clinic were consented under an Institutional Review Board—approved protocol (Case 7813). Blood was collected using Vacutainer Plus serum blood collection tubes (#BD367814, Becton Dickenson, Franklin Lakes, N.J.), between 1 and 16 hours after the 1000 mg daily dose of Abi acetate was administered, and allowed to clot. Tubes were centrifuged at 2500 RPM or 1430×g for 10 minutes. Serum aliquots were frozen at −80° C. until processing. To study the effect of dutasteride on Abi metabolism, serum samples were collected from patients treated on a phase II clinical trial at Dana-Farber Cancer Institute (NCT01393730). Each patient received Abi acetate (1,000 mg daily) plus prednisone (5 mg daily) for 2 cycles (8 weeks) and then additional treatment with dutasteride ([…]) was initiated. Samples were collected on treatment with Abi alone and after addition of dutasteride (start of cycles 3, 4 and 7). Seventeen patients treated at this institution on this clinical trial had blood available from all 3 time points. One patient had Abi concentrations that were under the limit of detection and was later determine to have stopped treatment because of adverse effects and was therefore not included in the analysis. Drug metabolites and internal standard (d4-abiraterone, Toronto Research Chemicals Inc, Ontario Canada) were extracted from 100 μL of patient serum with methyl tert-butyl ether (Sigma Aldrich, St. Louis, Mo.), evaporated under a stream of nitrogen gas and reconstituted in methanol:water (50:50) prior to mass spectrometry analysis. Standard curves were generated using human serum spiked with known concentrations of each metabolite to enable determination of unknown concentrations in patient samples
Samples were analyzed on a ultra high-performance liquid chromatography station (Shimadzu, Kyoto, Japan) with a DGU-20A3R degasser, 2 LC-30AD pumps, a SIL-30AC autosampler, a CTO-10A column oven and a CBM-20A system controller in tandem with a QTRAP 5500 mass spectrometer (AB Sciex, Framingham, Mass.). Drug metabolites were ionized using electrospray ionization in positive ion mode. Multiple reaction monitoring was used to follow mass transitions for Abi, IS, and the metabolites (Table 1). Due to the similarity in structure and mass transitions for the metabolites it was necessary to separate them with chromatography. Separation of drug metabolites was achieved using a mobile phase consisting of LC-MS grade (Fisher) methanol: acetonitrile: water:formic acid (39:26:34:1) at a flow rate of 0.2 ml/min., and C18 analytical column; Zorbax Eclipse plus 150×2.1 mm, 3.5 μm (Agilent, Santa Clara, Calif.).

SMILES	3βHSD inhibition activity relative to D4A (3βHSD)	decline in mean serum concentration after the addition of dutasteride ([1]; cycle 3 vs. cycle 4) [%]	mean serum concentration, cycle 3 [1] [nM]	mean serum concentration, cycle 4 [1] [nM]	potency relative to Abi at blocking conversion of [3H]-DHEA by 3βHSD to AD (3βHSD; LNCaP and VCaP cells, TLC and HPLC)
C[C@]12CC[C@@H](O)C[C@@H]1CC[C@@H]1[C@@H]2CC[C@]2(C)C(c3cccnc3)=CC[C@@H]12 [Compound 3α-OH-5α-Abi, 17-(3-pyridyl)-5α-androsta-16-ene-3α-ol]	attenuation or loss	92			
C[C@]12CCC(=O)C[C@@H]1CC[C@@H]1[C@@H]2CC[C@]2(C)C(c3cccnc3)=CC[C@@H]12 [Compound 5α-Abi, 17-(3-pyridyl)-5α-androsta-16-ene-3-one]	attenuation or loss		25.8	2.9	
C[C@]12CCC(=O)C=C1CC[C@@H]1[C@@H]2CC[C@]2(C)C(c3cccnc3)=CC[C@@H]12 [Compound D4A, 17-(3-Pyridyl)androsta-4,16-dien-3-one]			9.9	18.2	approximately 10 fold
